Reference: US20250333397A1 (REMIX THERAPEUTICS INC., priority 2021, published 2025)
Read-outs that look alike come from different tables or passages of the source.

Columns and labels:
Assay type in all cases: cell-based, human
[1] = system: HTT mRNA; test: RT-qPCR splicing assay, HTT canonical (CJ) and alternative (AJ) junction mRNA; conditions: Homo sapiens; for AC50: read-out: HTT AJ (AC50, increase in AJ mRNA)
Outline: (§1)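 Junction-specific RT-qPCR read the canonical exon-exon junction and the compound-induced alternative-exon junction, normalized to GAPDH, GUSB or PPIA and then to DMSO (2^(-ΔΔCt)). Input was lysate from A673 or K562 cells exposed for 24 h to compound up to 10 uM.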

[2] = system: MYB mRNA; test: RT-qPCR splicing assay, MYB canonical (CJ) and alternative (AJ) junction mRNA; conditions: Homo sapiens; for AC50: read-out: MYB AJ (AC50, increase in AJ mRNA)
Outline: as §1

[3] = system: SMN2 mRNA; test: RT-qPCR splicing assay panel, SMN2 canonical junction (CJ) mRNA; conditions: Homo sapiens
Outline: as §1

[4] = system: Target C mRNA; test: RT-qPCR splicing assay panel, Target C canonical junction (CJ) mRNA; conditions: Homo sapiens
Outline: as §1

[5] = 24 h, Table 3A, A673 or K562 cells, 24 h treatment
[6] = 24 h, Table 3A, A673 or K562 cells, 24 h treatment, read-out: HTT CJ (IC50, decrease in CJ mRNA)
[7] = canonical junction (CJ) mRNA, RT-qPCR panel, Table 4A, read-out: HTT, decrease in CJ mRNA levels, IC50
[8] = 24 h, Table 3A, A673 or K562 cells, 24 h treatment, read-out: MYB CJ (IC50, decrease in CJ mRNA)
[9] = canonical junction (CJ) mRNA, RT-qPCR panel, Table 4A, read-out: MYB, decrease in CJ mRNA levels, IC50
[10] = canonical junction (CJ) mRNA, RT-qPCR panel, Table 4A, read-out: SMN2, decrease in CJ mRNA levels, IC50
[11] = canonical junction (CJ) mRNA, RT-qPCR panel, Table 4A, read-out: Target C, decrease in CJ mRNA levels, IC50
[12] = 24 h, Table 3B, A673 or K562 cells, 24 h treatment

SMILES	IC50 [1, 6]	IC50 [1, 7]	IC50 [2, 8]	IC50 [2, 9]	IC50 [3, 10]	IC50 [4, 11]	IC50 ([1]; 24 h, Table 3B, A673 or K562 cells, 24 h treatment, read-out: HTT CJ (IC50, decrease in CJ mRNA))	IC50 ([1]; Table 4B, gene panel, read-out: HTT (IC50, decrease in CJ mRNA levels))	IC50 ([2]; 24 h, Table 3B, A673 or K562 cells, 24 h treatment, read-out: MYB CJ (IC50, decrease in CJ mRNA))	IC50 ([2]; Table 4B, gene panel, read-out: MYB (IC50, decrease in CJ mRNA levels))	IC50 ([3]; Table 4B, gene panel, read-out: SMN2 (IC50, decrease in CJ mRNA levels))	IC50 ([4]; Table 4B, gene panel, read-out: Target C (IC50, decrease in CJ mRNA levels))	AC50 [1, 5]	AC50 [2, 5]	AC50 [1, 12]	AC50 [2, 12]
Cc1ncc(-c2cc(O)c(-c3ccc(N4CC[C@H](N(C)C5CCC5)C4)nn3)cc2F)s1 [Compound 267]	< 100 nM	< 100 nM	< 100 nM	< 100 nM	< 100 nM	< 100 nM							< 100 nM	< 100 nM		
Cc1ccc(-c2ccc(-c3ccc(N4CC[C@@H](NC5CCC5)C4)nn3)c(O)c2)cn1 [Compound 293, 2-{6-[(3R)-3-(cyclobutylamino)pyrrolidin-1-yl]pyridazin-3-yl}-5-(6-methylpyridin-3-yl)phenol]	100 to 1000 nM	100 to 1000 nM	1000 to 10000 nM	1000 to 10000 nM	< 100 nM	1000 to 10000 nM							100 to 1000 nM	100 to 1000 nM		
COc1cc(-c2ccc(-c3ccc(N4CC[C@H](NC(C)(C)C)C4)nn3)c(O)c2)ncn1 [Compound 283, 2-{6-[(3S)-3-(tert-butylamino)pyrrolidin-1-yl]pyridazin-3-yl}-5-(6-methoxypyrimidin-4-yl)phenol]	< 100 nM	< 100 nM	100 to 1000 nM	100 to 1000 nM	< 100 nM	< 100 nM							< 100 nM	100 to 1000 nM		
COc1cc(-c2cc(O)c(-c3ccc(N4CC[C@@](C)(NC5CCC5)C4)nn3)cc2F)cnn1 (single isomer, unassigned) [Compound 308, 2-{6-[3-(cyclobutylamino)-3-methylpyrrolidin-1-yl]pyridazin-3-yl}-4-fluoro-5-(6-methoxypyridazin-4-yl)phenol]	< 100 nM	< 100 nM	1000 to 10000 nM	1000 to 10000 nM	< 100 nM	100 to 1000 nM							100 to 1000 nM	100 to 1000 nM		
Cc1ncc(-c2ccc(-c3ccc(N4CC[C@H](N(C)C5CCC5)C4)nn3)c(O)c2)s1 [Compound 268]	100 to 1000 nM	100 to 1000 nM	> 10000 nM	> 10000 nM	100 to 1000 nM	> 10000 nM							1000 to 10000 nM	> 10000 nM		
Cc1ncc(-c2cc(O)c(-c3ccc(N4CC[C@H](NCC5CC5)C4)nn3)cc2F)s1 [Compound 393]	< 100 nM	< 100 nM	< 100 nM	< 100 nM	< 100 nM	< 100 nM							< 100 nM	< 100 nM		
COc1nc(-c2ccc(N3CCC(NC(C)(C)C)C3)nn2)ccc1-c1cnc(C)s1 (stereo not drawn) [Compound 355]	< 100 nM	< 100 nM	100 to 1000 nM	100 to 1000 nM	< 100 nM	< 100 nM							< 100 nM	100 to 1000 nM		
COc1cc(-c2ccc(-c3ccc(N4CCC(NC5CC(C)(C)C5)C4)nn3)c(O)c2)cnn1 (stereo not drawn) [Compound 352, 2-(6-{3-[(3,3-dimethylcyclobutyl)amino]pyrrolidin-1-yl}pyridazin-3-yl)-5-(6-methoxypyridazin-4-yl)phenol]	100 to 1000 nM	100 to 1000 nM	100 to 1000 nM	100 to 1000 nM	100 to 1000 nM	100 to 1000 nM							100 to 1000 nM	1000 to 10000 nM		
COc1nc(-c2ccc(N3CCC(NC4CCC4)C3)nn2)ccc1-c1cnc(C)s1 (stereo not drawn) [Compound 374]	100 to 1000 nM	100 to 1000 nM	100 to 1000 nM	100 to 1000 nM	< 100 nM	100 to 1000 nM							100 to 1000 nM	1000 to 10000 nM		
COc1cc(-c2ccc(-c3ccc(N4CCC(C)(NC5CCC5)C4)nn3)c(O)c2)cnn1 (stereo not drawn) [Compound 275]	< 100 nM	< 100 nM	100 to 1000 nM	100 to 1000 nM	< 100 nM	< 100 nM							< 100 nM	100 to 1000 nM		
Oc1cc(-c2cn[nH]c2)ccc1-c1ccc(N2CCC(NC3(CF)CC3)C2)nn1 (stereo not drawn) [Compound 112, 2-[6-(3-{[1-(fluoromethyl)cyclopropyl]amino}pyrrolidin-1-yl)pyridazin-3-yl]-5-(1H-pyrazol-4-yl)phenol]	< 100 nM	< 100 nM	100 to 1000 nM	100 to 1000 nM	< 100 nM	100 to 1000 nM							< 100 nM	< 100 nM		
COc1cc(-c2ccc(-c3ccc(N4CCC(NC5CC(F)(F)C5)C4)nn3)c(O)c2)cnn1 (stereo not drawn) [Compound 334, 2-(6-(3-((3,3-difluorocyclobutyl)amino)pyrrolidin-1-yl)pyridazin-3-yl)-5-(6-methoxypyridazin-4-yl)phenol]	< 100 nM	< 100 nM	100 to 1000 nM	100 to 1000 nM	100 to 1000 nM	100 to 1000 nM							100 to 1000 nM	1000 to 10000 nM		

Second part, led by results:

IC50 [1, 6]	IC50 [1, 7]	IC50 [2, 8]	IC50 [2, 9]	IC50 [3, 10]	IC50 [4, 11]	IC50 ([1]; 24 h, Table 3B, A673 or K562 cells, 24 h treatment, read-out: HTT CJ (IC50, decrease in CJ mRNA))	IC50 ([1]; Table 4B, gene panel, read-out: HTT (IC50, decrease in CJ mRNA levels))	IC50 ([2]; 24 h, Table 3B, A673 or K562 cells, 24 h treatment, read-out: MYB CJ (IC50, decrease in CJ mRNA))	IC50 ([2]; Table 4B, gene panel, read-out: MYB (IC50, decrease in CJ mRNA levels))	IC50 ([3]; Table 4B, gene panel, read-out: SMN2 (IC50, decrease in CJ mRNA levels))	IC50 ([4]; Table 4B, gene panel, read-out: Target C (IC50, decrease in CJ mRNA levels))	SMILES	AC50 [1, 5]	AC50 [2, 5]	AC50 [1, 12]	AC50 [2, 12]
	< 100 nM		1000 to 10000 nM	< 100 nM	1000 to 10000 nM							Cc1ncc(-c2cc(O)c(-c3ccc(N4CC[C@@H](CNC5CCC5)C4)nn3)cc2F)s1 [Compound 453]				
< 100 nM	< 100 nM	100 to 1000 nM	100 to 1000 nM	< 100 nM	100 to 1000 nM							COc1cc(-c2ccc(-c3ccc(N4CCC(N[C@H]5C[C@@H](O)C5)C4)nn3)c(O)c2)cnn1 (stereo partly drawn) [Compound 403, 5-(6-methoxypyridazin-4-yl)-2-[6-(3-{[(1s,3s)-3-hydroxycyclobutyl]amino}pyrrolidin-1-yl)pyridazin-3-yl]phenol]	100 to 1000 nM	1000 to 10000 nM		
1000 to 10000 nM	1000 to 10000 nM	1000 to 10000 nM	1000 to 10000 nM	1000 to 10000 nM	1000 to 10000 nM							COc1cc(-c2ccc(-c3nnc(N4CC[C@H](NC5CCC5)C4)cc3C)c(O)c2)cnn1 [Compound 450, (S)-2-(6-(3-(cyclobutylamino)pyrrolidin-1-yl)-4-methylpyridazin-3-yl)-5-(6-methoxypyridazin-4-yl)phenol]	1000 to 10000 nM	1000 to 10000 nM		
						100 to 1000 nM	100 to 1000 nM	1000 to 10000 nM	1000 to 10000 nM	1000 to 10000 nM	1000 to 10000 nM	Cn1cc2cc(-c3cnc(N4CC[C@@H](NC(C)(C)C)C4)nn3)c(O)cc2n1 [Compound 805]			1000 to 10000 nM	> 10000 nM
100 to 1000 nM	100 to 1000 nM	1000 to 10000 nM	1000 to 10000 nM	100 to 1000 nM	100 to 1000 nM							Cc1nc(C#N)c(-c2cc(O)c(-c3ccc(N4CC[C@H](NC5CCC5)C4)nn3)cc2F)s1 [Compound 429]	100 to 1000 nM	1000 to 10000 nM		
